Data published in ChEMBL document CHEMBL2074511, “Molecular cloning and pharmacological characterization of rat multidrug resistance protein 1 (mrp1)” (Drug Metab Dispos, 2003).

What follows are molecules tested on Multidrug resistance-associated protein 1 (assay: TP_TRANSPORTER: drug resistance in MRP1-expressing HEK293 cells). Details: human.
Format: functional, cell-based
COc1cccc2c1C(=O)c1c(O)c3c(c(O)c1C2=O)C[C@@](O)(C(=O)CO)C[C@@H]3O[C@H]1C[C@H](N)[C@H](O)[C@H](C)O1 [DOXORUBICIN] was tested, and the Activity was “substrate []”.
With CC[C@]1(O)C[C@H]2CN(CCc3c([nH]c4ccccc34)[C@@](C(=O)OC)(c3cc4c(cc3OC)N(C=O)[C@H]3[C@@](O)(C(=O)OC)[C@H](OC(C)=O)[C@]5(CC)C=CCN6CC[C@]43[C@@H]65)C2)C1 [VINCRISTINE] the Activity was “substrate []”.
In the case of COc1cccc2c1C(=O)c1c(O)c3c(c(O)c1C2=O)C[C@@](O)(C(=O)CO)C[C@@H]3O[C@H]1C[C@H](N)[C@@H](O)[C@H](C)O1 [EPIRUBICIN], the Activity is reported as “substrate []”.
In the case of COc1cc([C@@H]2c3cc4c(cc3[C@@H](O[C@@H]3O[C@@H]5CO[C@@H](C)O[C@H]5[C@H](O)[C@H]3O)[C@H]3COC(=O)[C@H]23)OCO4)cc(OC)c1O [ETOPOSIDE], the Activity is reported as “substrate []”.
